Measured values reported in patent US9820977B2, “Systemic treatment of blood-sucking and blood-consuming parasites by oral administration of a parasiticidal agent” (priority 2008, dated 2017).
Where “and” joins values, the source holds several entries; their conditions need not be identical. Equal values may be shown once.

Experiments:
[1] = given orally to control fleas; cited from earlier work
[2] = test system: Rhipicephalus sanguineus; experiment: Tick infestation on dogs, oral dosing, tick counts; assay type: in vivo; settings: for Attached Dead Day 2 / Dead Attached Day 6 / Dead Free Day 6 / Live Attached Day 6 / Live Free Day 6 / Ticks Removed Day 2 / Mean Efficacy / Efficacy / Dead Ticks / Live Ticks / Comb Count Day 3 Dead / Comb Count Day 3 Live / Hand Count Day 2: dogs; for Mean Efficacy / Efficacy / Comb Count Day 3 Dead / Comb Count Day 3 Live / Hand Count Day 2: ticks; for Efficacy: Day 6
Protocol: Tick Species: Rhipicephalus sanguineus
Number: ˜50 unfed adults per dog per infestation (˜25 male and ˜25 females)
(§1) Species/Strain/Source: Dog/beagles/Stillmeadow, Inc. dog colony
(§2) Body weights were recorded during the pretest period. Six dogs were selected for study, weighed and randomly assigned to two groups of three and infested with either 100 fleas or 50 ticks. For the flea study whose results are shown in Table 3, repeat 100 flea infestations were performed on Days 2 and 5, without additional dosing. For all studies, the Group I dogs served as untreated controls. All animals except those in Group II of the study whose results are reported in Table 1 were dosed orally with the test article in gelatin capsules. The Group II, Table 1 animals received 5 mg of imidacloprid active in a chewable drug delivery vehicle.
(§3) For blood collections, drawn blood was collected into lavender top Vacutainer® tubes. The tubes were centrifuged and plasma was drawn off and frozen at approximately −20° C. pending possible future shipment to the sponsor for analysis of levels of test article in the plasma. Comb and pan counts were conducted as noted in the Tables, following dosing. The number of live fleas and ticks removed during the comb counts was recorded as were, where noted in the Tables, dead tick counts.

[3] = test system: Ctenocephalides felis; experiment: Flea infestation on dogs, oral dosing, pan and comb counts; assay type: in vivo; settings: for Mean Efficacy / 1 hour pan counts / 3 hour pan counts / Comb Count Day 1 / # Live Fleas Removed / 4 hour pan counts / 6 hour pan counts / Efficacy, Comb Count Day 2 (reinfested) / Efficacy, Comb Count Day 5 (reinfested) / Comb Count Day 2 (reinfested) / Comb Count Day 5 (reinfested) / Efficacy, Comb Count Day 1 / Average 1 hour pan counts / Average 3 hour pan counts: dogs; for Mean Efficacy / Efficacy, Comb Count Day 2 (reinfested) / Efficacy, Comb Count Day 5 (reinfested) / Efficacy, Comb Count Day 1: fleas
Protocol: Flea Species: Ctenocephalides felis
Number: ˜100 unfed adults per dog per infestation with a sex ratio of ˜50/50
as §1, §2, §3

[4] = test system: ticks; settings: given topically, imidacloprid alone; cited from earlier work
[5] = oral 3 mg/kg, individual animals, 3 mg/kg
[6] = oral 10 mg/kg, individual animals, 10 mg/kg
[7] = oral 15 mg/kg, Day 1, group Mean
[8] = oral 15 mg/kg, Day 1, individual animals, 15 mg/kg
[9] = oral 22 mg/kg, Day 1, group Mean
[10] = oral 22 mg/kg, Day 1, individual animals, 22 mg/kg
[11] = oral 30 mg/kg, Day 1, group Mean
[12] = oral 30 mg/kg, Day 1, individual animals, 30 mg/kg
[13] = oral 30 mg/kg, individual animals, 30 mg/kg
[14] = oral 0.5 mg/kg, individual animals, 0.5 mg/kg
[15] = oral 1.0 mg/kg, individual animals, 1 mg/kg
[16] = oral 3.0 mg/kg single dose, group Mean
[17] = oral 3.0 mg/kg single dose, individual animals, 3 mg/kg
[18] = oral 3.0 mg/kg, individual animals, 3 mg/kg
[19] = oral 6.0 mg/kg single dose, group Mean
[20] = oral 6.0 mg/kg, individual animals, 6 mg/kg
[21] = oral 10.0 mg/kg single dose, group Mean
[22] = oral 10.0 mg/kg, individual animals, 10 mg/kg

## N#Cc1nn(-c2c(Cl)cc(C(F)(F)F)cc2Cl)c(N)c1[S+]([O-])C(F)(F)F (centres unmarked) [Fipronil, 5-amino-1-[2,6-dichloro-4-(trifluoromethyl)phenyl]-4-[(trifluoromethyl)sulfinyl]-1H-pyrazole-3-carbonitrile]
[1]
  emesis: known to cause emesis

## O=[N+]([O-])N=C1NCCN1Cc1ccc(Cl)nc1 [Imidacloprid, 1-[(6-chloro-3-pyridinyl)methyl]-N-nitro-2-imidazolidinimine]
[2]; oral 3 mg/kg, group Mean
  Attached Dead Day 2: 1
  Dead Attached Day 6: 0
  Dead Free Day 6: 0.0
  Live Attached Day 6: 8
  Live Free Day 6: 0
  Ticks Removed Day 2: 18
[2]; oral 3 mg/kg, individual animals
  Dead Free Day 6: 0
[2]; [5]
  Attached Dead Day 2: 1 (2×) and 0
  Dead Attached Day 6: 2 (2×) and 0
  Live Attached Day 6: 6 and 4 and 13
  Live Free Day 6: 1 and 0 (2×)
  Ticks Removed Day 2: 17 and 8 and 28
[2]; oral 3 mg/kg, Day 2
  Mean Efficacy: 15.9
[2]; oral 3 mg/kg
  Efficacy: 61.0
[2]; oral 10 mg/kg, group Mean
  Attached Dead Day 2: 3
  Dead Attached Day 6: 0
  Dead Free Day 6: 0
  Live Attached Day 6: 17
  Live Free Day 6: 0
  Ticks Removed Day 2: 20
[2]; oral 10 mg/kg, individual animals
  Dead Free Day 6: 0
[2]; [6]
  Attached Dead Day 2: 2 and 0 and 6
  Dead Attached Day 6: 1 and 0 (2×)
  Live Attached Day 6: 14 and 8 and 28
  Live Free Day 6: 1 and 0 (2×)
  Ticks Removed Day 2: 16 and 22 and 23
[2]; oral 10 mg/kg, Day 2
  Mean Efficacy: 3.2
[2]; oral 10 mg/kg
  Efficacy: 15.3
[2]; [7]
  Dead Ticks: 1
  Live Ticks: 15
[2]; [8]
  Dead Ticks: 0 and 3 and 1
  Live Ticks: 33 and 2 and 10
[2]; oral 15 mg/kg, Day 1
  Mean Efficacy: 48.9
[2]; [9]
  Dead Ticks: 1
  Live Ticks: 9
[2]; [10]
  Dead Ticks: 2 and 1 and 0
  Live Ticks: 3 and 12 and 13
[2]; oral 22 mg/kg, Day 1
  Mean Efficacy: 68.2
[2]; [11]
  Dead Ticks: 2
  Live Ticks: 11
[2]; [12]
  Dead Ticks: 7 and 0 (2×)
  Live Ticks: 10 and 12 and 11
[2]; oral 30 mg/kg, Day 1
  Mean Efficacy: 62.5
[2]; oral 30 mg/kg, Day 3
  Mean Efficacy: 79.5
[2]; oral 30 mg/kg, group Mean
  Comb Count Day 3 Dead: 1
  Comb Count Day 3 Live: 5
  Hand Count Day 2: 9
[2]; [13]
  Comb Count Day 3 Dead: 0 (2×) and 2
  Comb Count Day 3 Live: 6 and 5 and 4
  Hand Count Day 2: 8 and 13 and 7
[2]; single oral dose 3 mg/kg, within as little as 24-48 hours of administration
  effective against a tick infestation on treated animals: at least 60%
[3]; oral 0.25 mg/kg, Day 1
  Mean Efficacy: 100.0
[3]; oral 0.25 mg/kg, group Mean
  1 hour pan counts: 0.0
  3 hour pan counts: 5.5
[3]; oral 0.25 mg/kg, individual animals
  1 hour pan counts: 0
[3]; oral 0.25 mg/kg, individual animals, 0.25 mg/kg
  3 hour pan counts: 2 and 9
[3]; oral 0.25 mg/kg, live fleas, group Mean
  Comb Count Day 1: 0.0
[3]; oral 0.25 mg/kg, live fleas, individual animals
  Comb Count Day 1: 0
[3]; oral 0.5 mg/kg, column after 4 hour pan counts, group Mean
  # Live Fleas Removed: 22.7
[3]; oral 0.5 mg/kg, column after 4 hour pan counts, individual animals, 0.5 mg/kg
  # Live Fleas Removed: 31 and 2 and 35
[3]; oral 0.5 mg/kg, column after 6 hour pan counts, group Mean
  # Live Fleas Removed: 0.0
[3]; oral 0.5 mg/kg, column after 6 hour pan counts, individual animals
  # Live Fleas Removed: 0
[3]; oral 0.5 mg/kg
  Mean Efficacy: 100.0
[3]; oral 0.5 mg/kg, group Mean
  4 hour pan counts: 0.0
  6 hour pan counts: 39.7
[3]; [14]
  4 hour pan counts: 5 and 45 and 15
  6 hour pan counts: 39 and 33 and 47
[3]; oral 1.0 mg/kg, column after 4 hour pan counts, group Mean
  # Live Fleas Removed: 9.0
[3]; oral 1.0 mg/kg, column after 4 hour pan counts, individual animals, 1 mg/kg
  # Live Fleas Removed: 4 and 12 and 11
[3]; oral 1.0 mg/kg, column after 6 hour pan counts, group Mean
  # Live Fleas Removed: 0.0
[3]; oral 1.0 mg/kg, column after 6 hour pan counts, individual animals
  # Live Fleas Removed: 0
[3]; oral 1.0 mg/kg
  Mean Efficacy: 100.0
[3]; oral 1.0 mg/kg, group Mean
  4 hour pan counts: 41.7
  6 hour pan counts: 44.0
[3]; [15]
  4 hour pan counts: 44 and 41 and 40
  6 hour pan counts: 35 and 44 and 53
[3]; oral 3.0 mg/kg single dose
  Efficacy, Comb Count Day 2 (reinfested): 68.1
  Efficacy, Comb Count Day 5 (reinfested): 42.1
[3]; [16]
  Comb Count Day 2 (reinfested): 22.3
  Comb Count Day 5 (reinfested): 25.3
[3]; [17]
  Comb Count Day 2 (reinfested): 15 and 40 and 12
  Comb Count Day 5 (reinfested): 32 and 80 and 42
[3]; oral 3.0 mg/kg
  Efficacy, Comb Count Day 1: 100.0
[3]; oral 3.0 mg/kg, group Mean
  Average 1 hour pan counts: 1.3
  Average 3 hour pan counts: 9.0
  Comb Count Day 1: 0.0
[3]; oral 3.0 mg/kg, individual animals
  Comb Count Day 1: 0
[3]; [18]
  Average 1 hour pan counts: 2 and 1 (2×)
  Average 3 hour pan counts: 7 and 9 and 11
[3]; oral 6.0 mg/kg single dose
  Efficacy, Comb Count Day 2 (reinfested): 100.0
  Efficacy, Comb Count Day 5 (reinfested): 79.3
[3]; [19]
  Comb Count Day 2 (reinfested): 0.0
  Comb Count Day 5 (reinfested): 12.1
[3]; oral 6.0 mg/kg single dose, individual animals
  Comb Count Day 2 (reinfested): 0
[3]; oral 6.0 mg/kg single dose, individual animals, 6 mg/kg
  Comb Count Day 5 (reinfested): 7 and 17 and 31
[3]; oral 6.0 mg/kg
  Efficacy, Comb Count Day 1: 100.0
[3]; oral 6.0 mg/kg, group Mean
  Average 1 hour pan counts: 7.6
  Average 3 hour pan counts: 19.6
  Comb Count Day 1: 0.0
[3]; oral 6.0 mg/kg, individual animals
  Comb Count Day 1: 0
[3]; [20]
  Average 1 hour pan counts: 5 and 6 and 12
  Average 3 hour pan counts: 13 and 22 and 27
[3]; oral 10.0 mg/kg single dose
  Efficacy, Comb Count Day 2 (reinfested): 100.0
  Efficacy, Comb Count Day 5 (reinfested): 97.7
[3]; [21]
  Comb Count Day 2 (reinfested): 0.0
  Comb Count Day 5 (reinfested): 2.0
[3]; oral 10.0 mg/kg single dose, individual animals
  Comb Count Day 2 (reinfested): 0
[3]; oral 10.0 mg/kg single dose, individual animals, 10 mg/kg
  Comb Count Day 5 (reinfested): 0 and 5 and 1
[3]; oral 10.0 mg/kg
  Efficacy, Comb Count Day 1: 100.0
[3]; oral 10.0 mg/kg, group Mean
  Average 1 hour pan counts: 11.3
  Average 3 hour pan counts: 19.0
  Comb Count Day 1: 0.0
[3]; oral 10.0 mg/kg, individual animals
  Comb Count Day 1: 0
[3]; [22]
  Average 1 hour pan counts: 10 and 16 and 8
  Average 3 hour pan counts: 14 and 25 and 18
[3]; orally dosed at a rate as low as 0.25 mg/kg
  efficacious against pre-existing C. felis infestations: 100%
[3]; single oral dose 0.25 mg/kg, within as little as an hour of administration
  effective against a flea infestation on treated animals: 100%
[4]
  effect on ticks: little or no effect on ticks
